Source: ChEMBL document CHEMBL1150638, “An unusual sesquiterpene derivative from Ferula kuhistanica” (J Nat Prod, 2002)
Activity calls are given as the source filed them. The rule behind the calls is not given here.

How the values were obtained:
HCT-116 = experiment: Cytotoxicity against human HCT116 cells after 2 days by MTT assay; format: functional, cell-based; settings: HCT-116, 48 h
Staphylococcus aureus [1] = experiment: Antibacterial activity against methicillin-sensitive Staphylococcus aureus; format: functional, organism-based
Staphylococcus aureus [2] = experiment: Antibacterial activity against methicillin-resistant Staphylococcus aureus; format: functional, organism-based

Q: Which IC50 (HCT-116) does the source give for `CC(=O)CC[C@@]1(C)CC[C@]2(C(C)C)O[C@@H](O)[C@H](OC(=O)c3ccc(O)cc3)[C@H]12` [KUHISTAFERONE] here?
A: Its IC50 is 181 µM.

Q: And the Activity (Staphylococcus aureus [1])?
A: The Activity was “inactive”.

Q: And the Activity (Staphylococcus aureus [2])?
A: The Activity was “inactive”.
